Entries after “also recorded” stand apart in the source; their conditions may differ. Like-named read-outs stand apart in the source and are kept apart here.

Consider three compounds from article PMC5510868 (PLoS ONE, 2017).

Series [1] in a line: Previous studies of antidepressant plasma/serum concentrations in pregnancy (literature quoted in the Discussion). Type of series: in vivo, human. To be noted: 0.3 ng/mL per gestational week applied to this study's data.
Series [2] can be described thus: Dose-adjusted serum antidepressant concentrations across pregnancy compared to the women's own baseline (routine TDM, LC-MS, linear mixed model). Type of series: in vivo, human. The source says:
After obtaining approval from the Regional Committee for Medical and Health Research Ethics in Mid Norway, the Norwegian Centre for Research Data (Data Protection Official), the Norwegian Directorate of Health and the Medical Birth Registry of Norway (MBRN) publication council, serum concentration data for antidepressants were collected from the two largest TDM services for psychotropic drugs in Norway (i.e. Department of Clinical Pharmacology at St. Olav University Hospital in Trondheim, and Center for Psychopharmacology at Diakonhjemmet Hospital in Oslo). […] The antidepressant TDM data contain serum concentration measurements taken in a naturalistic setting from psychiatry inpatients and outpatients. In addition to measured serum concentrations, the databases contain information obtained from the requisition forms, such as the prescribed antidepressant dose, time of last drug intake, time of blood sampling, and types and doses of concomitant drugs.
First, a combined laboratory TDM file was created, containing all serum concentration measurements (for any drug) in the period October 1999 –December 2011 for all women of reproductive age (i.e. born 1950–2000). […] Using the unique 11-digit identification number assigned to all individuals living in Norway, the MBRN could identify all pregnant women in the TDM data set. […] For the current study we retrieved the following information: the personal identification number, the drug analysed, the measured drug serum concentration, time of last dose, time of sampling, drug dose, concomitant drug use, other clinical information, name of the responsible physician, gestational week at the time of sampling (calculated from the sampling date and the pregnancy onset date as determined by obstetric ultrasound if available, or by last menstruation), and date of delivery.
If the requisition form lacked information on drug dose the authors contacted the responsible physician, who attempted to obtain this information from the medical record. If we were unable to retrieve this information, the analysis was excluded.
Having identified the pregnant women and their individual pregnancy periods in the extracted data file, we used the original TDM databases to retrieve serum concentration measurements before and after pregnancy from the same women, to serve as baseline observations for each of the included subjects. […] These analyses were not used in the statistical model, only for visual comparison. The remaining 420 analyses were used for the statistical comparisons.
Since multiple measurements were available from the same patient a linear mixed model was used. […] Baseline measurements were set to gestational week 0 in the model. Then, the effect of gestational week on concentration compared to baseline could be estimated for each drug.
Data are presented as means with 95% confidence intervals.

The conditions of series [3]: cited from earlier work.
A short description of series [4]: Serum metabolite concentrations and parent compound/metabolite ratios at baseline and in the third trimester (TDM, linear mixed model).
Protocol: (§1) Quantification of the drug concentrations was performed with liquid chromatography-mass spectrometry/tandem mass spectrometry (LC-MS/LC-MS/MS). […] In brief, the drugs were extracted from serum by liquid-liquid extraction, using a mixture of hexane, acetonitrile and/or butanol, or dichloromethane and isopropanol. Thereafter, the analytes were separated on C18 columns using methanol, acetonitrile, formic acid or ammonium acetate as mobile phases, and quantified on LC-MS or LC-MS-MS systems. Calibration curves were constructed for each assay with drug-free human serum by the addition of varying concentrations of the antidepressants and their respective metabolites.
(§2) Serum concentrations in ng/mL were divided by the daily dose used by the person at the time of sampling, providing a serum concentration/dose ratio, and then multiplied by the defined daily dose (DDD), which is the assumed average maintenance dose per day for that drug used for its main indication in adults [28]. […] All concentrations presented and discussed in this article, including tables and figures, are dose-adjusted to the DDD of the drug.
(§3) For drugs where both the parent drug and the metabolite were measured, parent drug/metabolite concentration ratios during pregnancy were compared to baseline values as described above; ratios were loge-transformed and fitted into a linear mixed model, estimating the baseline ratios and the effect of each gestational week.
(§4) All model parameters, including variance components, were estimated by the method of maximum likelihood using STATA 13 command “mixed”. […] P values less than 0.05 were considered statistically significant.
For series [5] the following is noted: in vivo.
Protocol: as §1, §2, §3, §4
The mark [6] stands for this setting: baseline to third trimester (gestational week 34).

As for `Fc1ccc([C@@H]2CCNC[C@H]2COc2ccc3c(c2)OCO3)cc1` [Paroxetine], the “Reduction in week 34 to which the cited decline per week translates for the present data” value in series [1] is 30%. For the same compound, the “Serum concentration in pregnancy as share of pre-pregnancy levels” value in series [2] (drop to about this share of pre-pregnancy levels) is on record as “about 50%”. The “Serum concentration in third trimester lower than baseline (reduction)” value in series [2] (mid third trimester (gestational week 34) vs baseline, value given as size of the reduction) amounted to 51%. The “Concentrations in third trimester compared to postpartum (in words)” value in series [3] (12 pregnancies, no numbers provided, ref Brogtrop et al. [17]) is given as “lower concentrations in the third trimester compared to postpartum”. Further, in series [3] (intermediate and poor CYP2D6 metabolizers), the “Increase of maternal plasma concentration per gestational week” value is reported as 0.6 ng/mL per gestational week. Moreover, in series [3] (ultrarapid or extensive CYP2D6 metabolizers, 74 pregnancies, ref Ververs et al. [20]), the “Decline of maternal plasma concentration per gestational week” value was 0.3 ng/mL per gestational week.
Turning to `CN(C)CCC[C@@]1(c2ccc(F)cc2)OCc2cc(C#N)ccc21` [Escitalopram], in series [4] (setting [6]), the “Change from baseline conc., Estimate (parent compound or metabolite)” value is “+24%” and the “Parent compound / metabolite ratio (PMR), change from baseline, estimate” value is given as “+40%”. Moreover, in series [4] (baseline to third trimester (gestational week 34), listed as escitalopram), the “Parent compound / metabolite ratio (PMR), change from baseline, estimate” value is recorded as 40%. The “Baseline conc., Estimate (parent compound or metabolite)” value in series [4] (day 0 (non-pregnant), only analyses with metabolite data, dose-adjusted to DDD) was 8.4 ng/mL. In series [4] (day 0 (non-pregnant), ratio), the “Parent compound / metabolite ratio (PMR), baseline estimate” value is on record as 1.8. Moreover, the “Parent compound / metabolite ratio (PMR), third trimester estimate” value in series [4] (gestational week 34, ratio) is 2.5. Also, the “Loge PMR, Intercept estimate” value in series [4] (loge-transformed parent compound/metabolite ratio, baseline) is given as 0.581. In addition, the “Loge PMR, Change per gestational week estimate” value in series [4] (loge-transformed parent compound/metabolite ratio, per week of pregnancy) is reported as 0.010. For the same compound, in series [4] (loge-transformed, baseline (day 0 of pregnancy), only analyses with metabolite data), the “Loge serum concentration, Intercept estimate (parent compound or metabolite)” value is 2.129. Also, the “Loge serum concentration, Change per gestational week estimate (parent compound or metabolite)” value in series [4] (loge-transformed, per week of pregnancy) is 0.006. Also, in series [2] (dose-adjusted, fluoxetine and venlafaxine = active moiety), the “Change of serum concentration in pregnancy compared to baseline (in words)” value is “did not change significantly; also recorded: not statistically significant; also recorded: remain largely unchanged; also recorded: close to zero”. The concentration at 4 gestational week in series [2] (female, human, serum, 10 mg/day, one analysis in week 4, dose-adjusted, read-out: Observed serum concentration, outlier not shown in Fig 2) was 36 ng/mL. Moreover, the concentration at 5 gestational week in series [2] (female, human, serum, 10 mg/day, one analysis in week 5, dose-adjusted, read-out: Observed serum concentration, outlier not shown in Fig 2) amounted to 40 ng/mL. The “Observed serum concentration, outlier not shown in Fig 2” value in series [2] (one analysis in week 0 (baseline), dose-adjusted) worked out at 36 ng/mL. Moreover, in series [3] (five pregnancies, ref Sit et al. [19]), the “Change of concentrations throughout pregnancy (in words)” value is “only minor declines or no change”.
In the case of `CNCCCC1(c2ccc(F)cc2)OCc2cc(C#N)ccc21` (stereo not shown) [Desmethylescitalopram], the “Loge serum concentration, Change per gestational week estimate (parent compound or metabolite)” value in series [5] was -0.004.
